Measured values published in US10113150B2, “Engineered cardiac tissues and methods of using them” (InvivoSciences, Inc., priority 2011, dated 2018).

Columns and labels:
[1] = tested on: cardiac fibroblasts / myofibroblasts (mFBs) in EHTs; test: Elimination of puromycin-sensitive fibroblasts in EHTs; assay type: cell-based, human; design: effect on mFBs: dose or concentration left out as unconfirmed
From the text: We fabricated EHTs using CMs derived from mouse ES cells (Cor.AT, Axiogenesis) that express a puromycin resistance-GFP reporter gene fusion driven by a cardiac-specific (αMHC) promoter. These Cor.AT CMs (1.75×10^6) were co-cultured with cardiac fibroblasts (FBs) in a 1:1 ratio (See Asnes, C. F., et al., Reconstitution of the Frank-Starling mechanism in engineered heart tissues. Biophys J, 2006. 91(5): p. 1800-10) for developing a coherently contracting EHT. The EHTs were compressed by the FBs from a loose (6×6×3.5 mm^3) hydrogel into a compacted (˜3×2×0.5 mm^3) coherently contracting tissue in 5-7 days. […] The remodeling capacity of FBs was needed to fabricate compressed 3D tissues that can generate cardiac contraction synchronously. Upon achieving synchronous contraction, the cardiac twitch force was measured using the Palpator. […] We expected that application of a similar protocol to fabricate EHTs with iPSC-derived CMs should produce similar cardiac contractility since individual CMs derived from human ES cells, iPSCs, and native rat hearts produced equivalent degrees of cardiac contractility. Our results showing similar results for human ES cells is below.
An increasing density of cardiomyocytes (CMs) in the EHT constructs promoted intercellular contacts to form a synchronously contracting EHT while myofibroblasts (mFBs) remodeled and compressed the constructs. However, an overgrowth of mFBs limited survival of CMs. By regulating the mFB proliferation, cardiac contractility of EHTs without mFBs was maintained at least 10-50% longer than those with mFBs. […] The Cor.AT CMs (1.75×10^6) were co-cultured with mFBs in a 5:1 ratio using previously published method and developed a coherently beating EHT. The EHTs with mFBs were compressed from a loose (6×6×3.5 mm^3) hydrogel into a compacted (˜3×2×0.5 mm^3) tissue in 5-7 days (FIG. 15B). Varying numbers of mFBs were mixed with CMs (e.g., 0.1:1, 0.5:1 up to 1:1) to fabricate EHTs. […]

[2] = tested on: engineered heart tissues (EHTs); test: EHT contractility assay (cardiac twitch force, Palpator)
From the text: EHTs were fabricated with 1.75-2×10^6 cardiomyocytes/mL using MC-8™ system (InvivoSciences, LLC). The cardiomyocytes were obtained from neonatal rats and guinea pigs, or embryonic mice or chicken. Viable and spontaneously twitching EHTs were generally obtained by day 10 after fabrication. The EHTs were electrically stimulated (60 mV, 1 Hz) during mechanical testing. The mechanical properties of EHTs using the Palpator™ device (InvivoSciences, LLC). This automated device positions a force probe directly above the center of each well (FIG. 7A-i) and moves it vertically in two (or more) steps (FIG. 7A-ii, -iii) to stretch twice the EHT to 3.7% and 7.7% longitudinally. Cardiac twitch (systolic) force and resting (diastolic) force were measured during each step for 30 and 60 s. […] The peak rate at which the cardiac twitch force changes (FIG. 7C) also indicated the contractility (FIG. 7D) of the EHT much like the dP/dtmax of left ventricles measured by pressure catheters.
To validate the ability of our assay system to assess cardiotoxicity, we profiled the effects of anti-cancer agents (doxorubicin and daunorubicin) and beta-adrenoceptor agonist (isoproterenol), which are known to cause cardiotoxicity in clinical and experimental applications. […] After a 3-day incubation with doxorubicin (20 nM, 200 nM, or 1 μM) the EHTs were measured again and their viability was determined.

[3] = tested on: mitochondrial membrane potential of EHTs; test: Mitochondrial membrane potential (MMP) of EHTs by TMRE fluorescence; assay type: cell-based, rat
From the text: The bottoms of the 8-well chambers were sealed with glass coverslips so that EHT cells could be observed using various optical instruments including microscopes and fluorescence plate readers in real time or after fixations. […] Mitochondria produce ATP via the electrochemical/osmotic gradient (˜180 mV) generated and maintained by the electron transport chain. Therefore, highly charged mitochondria produce ATP to support cardiac contractions.
Using a fluorescence plate reader (Synergy™ HT, BioTek U.S., Winooski, V T), we simultaneously measured TMRE's fluorescent signal (543 nm excitation/605±16 nm emission) and EHT contractions to determine the coupling between MMP and cardiac contractility. After a short (15-min) administration of 900 μM DNP (2,4-dinitrophenol), a potent uncoupler of MMP (FIG. 7F), to the EHTs MMP was reduced and cardiac contraction stopped (FIG. 7E).
Drug-induced cardiotoxicity often damages mitochondrial metabolic activity. We have developed additional assays for quantifying the mitochondrial membrane potential (MMP) of EHTs using the cationic potential metric dye tetramethylrhodamine ethyl ester (TMRE), and we are also assessing EHT viability using 3-(4,5-Dimethylthiazol-2-yl)-2,5-diphenyltetrazolium (MTT). An automated microplate reader was used to measure fluorescence or optical absorbance of these dyes. With these assays, we successfully screened for a small molecule that modulates cellular and tissue contractility without altering MMP and viability of cells (details in Lam, V. and T. Wakatsuki, Hydrogel Tissue Construct-Based High-Content Compound Screening. Journal of Biomolecular Screening, 2011. 16(1): p. 120-128.). Four test compounds were assayed: Rho kinase inhibitor (H1152), cytochalasin D (CD), 2,4-dinitrophenol (DNP), and rotenone (ROT). […] Assays to assess mitochondrial activity and metabolic parameters such as ATP concentrations, O2 consumption and free radical production have been measured using similar techniques, see e.g. Lam, V. and T. Wakatsuki, Hydrogel Tissue Construct-Based High-Content Compound Screening. […]

[4] = 900 μM, short (15-min) administration to EHTs

Structure (SMILES): COc1ccc(C[C@H](N)C(=O)N[C@H]2[C@@H](O)[C@H](n3cnc4c(N(C)C)ncnc43)O[C@@H]2CO)cc1 [puromycin]
- effect on mFBs [1]: eliminated
- effect on puromycin sensitive FBs ([1]; 5 μM, after compaction, EHTs with Cor.AT CMs): eliminated or their viability reduced
- effect on mFB in the EHTs ([1]; 10 μM, Cor.AT myocytes with human cardiac myofibroblasts): eliminated

Structure (SMILES): O=[N+]([O-])c1ccc(O)c([N+](=O)[O-])c1 [DNP, 2,4-dinitrophenol]
- cardiac twitch force ([2]; 450 μM): not reduced significantly
- cardiac contraction [2, 4]: stopped
- twitch force ([2]; increasing concentrations, FIG. 7E): reduced
- MMP (mitochondrial membrane potential) ([3]; 450 μM): attenuated
- MMP (mitochondrial membrane potential) [3, 4]: reduced
- EC50 ([3]; rat EHT, FIG. 14, read-out: EC50 of MMP dissipation): 340 µM
